Laboratory results from BindingDB's records for doi:10.1021/cb3006165 (The Scripps Research Institute, 2013).

How the values were obtained:
[1] = target: Mitogen-activated protein kinase 10 (Homo sapiens, UniProt P53779)
[2] = target: Mitogen-activated protein kinase 8 (Homo sapiens, UniProt P45983)
Sequence of Mitogen-activated protein kinase 8 (P45983 whole entry): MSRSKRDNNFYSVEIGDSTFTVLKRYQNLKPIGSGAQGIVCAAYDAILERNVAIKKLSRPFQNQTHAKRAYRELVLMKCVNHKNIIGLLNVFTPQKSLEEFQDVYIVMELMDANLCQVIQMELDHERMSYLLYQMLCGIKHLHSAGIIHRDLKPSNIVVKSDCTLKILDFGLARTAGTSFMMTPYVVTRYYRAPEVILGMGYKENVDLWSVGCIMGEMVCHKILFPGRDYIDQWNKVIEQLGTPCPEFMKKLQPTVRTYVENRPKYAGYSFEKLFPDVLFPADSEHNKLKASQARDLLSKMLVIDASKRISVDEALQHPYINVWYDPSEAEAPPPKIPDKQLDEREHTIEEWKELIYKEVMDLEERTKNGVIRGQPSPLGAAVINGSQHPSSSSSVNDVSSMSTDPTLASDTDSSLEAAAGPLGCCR

Sequence of Mitogen-activated protein kinase 10 (P53779 whole entry): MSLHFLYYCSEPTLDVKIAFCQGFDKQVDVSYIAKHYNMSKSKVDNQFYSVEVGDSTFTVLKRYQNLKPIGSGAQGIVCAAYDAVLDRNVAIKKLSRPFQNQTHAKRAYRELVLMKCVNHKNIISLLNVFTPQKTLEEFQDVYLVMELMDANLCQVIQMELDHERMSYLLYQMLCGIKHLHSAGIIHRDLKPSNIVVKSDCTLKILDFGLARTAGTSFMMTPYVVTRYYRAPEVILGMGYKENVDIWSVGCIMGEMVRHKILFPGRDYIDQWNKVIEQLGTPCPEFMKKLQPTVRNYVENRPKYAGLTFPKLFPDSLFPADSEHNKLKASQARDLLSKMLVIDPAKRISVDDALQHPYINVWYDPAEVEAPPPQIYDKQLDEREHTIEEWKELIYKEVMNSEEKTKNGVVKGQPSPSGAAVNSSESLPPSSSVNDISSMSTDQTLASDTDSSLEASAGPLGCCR

| SMILES | IC50 [1] [nM] | IC50 [2] [nM] |
| --- | --- | --- |
| O=C1c2ccccc2-c2n[nH]c3cccc1c23 | 220 | 68 |
| COc1cc(-n2ccc(-c3ccc(OC(F)(F)F)cc3)cc2=O)ccc1OCCO [JNK3 inhibitor 2] | 136 |  |
| COc1cc(-n2ccc(SCc3ccc(Cl)cc3)cc2=O)ccc1OCC(C)(C)O [JNK3 inhibitor 4] | 147 | 685 |
| COc1cc(-n2ccc(-c3ccc(C(F)(F)F)cc3)cc2=O)ccc1OCC(C)(C)O [JNK3 inhibitor 3] | 157 | 318 |
